Source: patent publication US4362727A, “5-Substituted 9-cyanomethylene-dithieno[3,4-b:4,3-e]-azepines and therapeutic agents which contain these compounds” (priority 1981, dated 1982)

Tests used:
[1] = tested on: orientation hypermotility; experiment: Sedative action (orientation hypermotility); type: in vivo, female NMRI mice; conditions: mice, oral; clozapine = 1.0
Experimental: 4-8 groups each of 3 female NMRI mice are given the compound orally. The orientation hypermotility induced by a new environment is determined photoelectrically, for a period of 30 minutes, starting 30 minutes after administration of the substances.

[2] = tested on: methamphetamine-induced sniffing movements; experiment: Antimethamphetamine action (methamphetamine antagonism); type: in vivo; conditions: rats, intraperitoneal; clozapine = 1.0
Experimental: 3. Antimethamphetamine action
Methamphetamine.HCl (2.5 mg/kg administered intravenously) regularly causes the following symptoms in rats: motor restlessness, searching and sniffing movements, fur standing on end, and tremor (Janssen et al., Arzneim.-Forsch./Drug Res. 13 (1963), 205; and Randrup et al., Psychopharmacologia 11 (1967), 300). The test substances are administered intraperitoneally 30 minutes before methamphetamine. The substance is considered to have an effect if no sniffing movements are observed for a period of 5 minutes after the injection of methamphetamine. The mean inhibition dose (ED50%) is determined, by means of probit analysis, as the dose which prevents the occurrence of the symptom in half the animals.

[3] = tested on: tonic extension reflex in the gastrocnemius; experiment: Muscle-relaxing action (tonic extension reflex); type: in vivo, rabbits; conditions: rabbit, intravenous; for Muscle relaxation R.E.: clozapine = 1.0
Experimental: 2. […] The rabbit is kept in a special apparatus which allows it to flex its paw at the talocalcanean joint in a defined and reproducible manner. The flexing triggers off a tonic extension reflex in the calf muscles. The electrical activity of the muscle during the contraction is recorded, and the individual pulses are counted. The extension (lasting 5 seconds) is repeated at intervals of one minute. […] The numbers of pulses following the administration are compared with the initial values.

[4] = tested on: pilocarpine-induced scratching movements; experiment: Anticholinergic action on the central nervous system (pilocarpine); type: in vivo; conditions: rats, intraperitoneal; clozapine = 1.0
Experimental: 4. Anticholinergic action on the central nervous system
To test the anticholinergic action on the central nervous system, cholinergic stimulation is triggered off by pilocarpine. After rapid intravenous injection of pilocarpine.HCl (50 mg/kg) rats display alternating scratching movements of their rear paws; further symptoms triggered off in the central nervous system are jaw movements and tremors. […] The test substances are administered intraperitoneally 30 minutes before pilocarpine. The substance is considered to have an effect if no scratching is observed for a period of 2 minutes after the injection of pilocarpine. For this symptom, the mean inhibition dose (ED50%) is determined, by means of probit analysis by the method of Finney, as the dose of the test substance which suppresses the scratching in half the animals.

SMILES	Sedation R.E. [1]	Methamphetamine antagonism R.E. [2]	Muscle relaxation R.E. [3]	Anticholinergic action on the central nervous system R.E. [4]	ED50 ([3]; Oryctolagus cuniculus, pulses compared with initial values, read-out: Muscle relaxation ED 50%) [mg/kg]
CCN1CCN(C2=Nc3cscc3C(=CC#N)c3cscc32)CC1 (mixture of isomers) [Example 6, Cis/trans-9-cyanomethylene-5-(4-ethyl-piperazin-1-yl)dithieno[3,4-b:4',3'-e]azepine]	0.44	0.88	0.21		
CN1CCN(C2=Nc3cscc3C(=CC#N)c3cscc32)CC1 [Example 1a, 9-cyanomethylene-5-(4-methyl-piperazin-1-yl)-dithieno[3,4-b:4',3'-e]azepine]	0.64		0.33	1.1	
CN1CCN(C2=Nc3c(csc3Cl)C(=CC#N)c3cscc32)CC1 (mixture of isomers) [Example 2, Cis/trans-3-chloro-9-cyanomethylene-5-(4-methylpiperazin-1-yl)-dithieno[3,4-b:4',3'-e]azepine]	0.49		0.56		
CN1CCN(C2=Nc3ccccc3Cc3ccccc32)CC1 [Perlapine]		1.2	0.42	0.22	
CN1CCN(C2=Nc3cc(Cl)ccc3Nc3ccccc32)CC1 [Clozapine]	1.0	1.0	1.0	1.0	0.046
